The source of these data is patent US6784137B2, “6-aryl-4-aminopicolinates and their use as herbicides” (Dow AgroSciences LLC, priority 2001, dated 2004).

Series [1] concerns Corn (#14 3377) (Zea mays). In words: Postemergence herbicidal activity, selectivity to corn. It is filed as in vivo. The settings on record: post-emergence, 336 h, Table 4, rate 62.5 (unit inferred), crop injury, read-out: Post-emergent % control ZEAMX. As for the experimental part: (§1) Seeds of the desired test plant species were planted in Grace-Sierra MetroMix® 306 planting mixture, which typically has a pH of 6.0 to 6.8 and an organic matter content of about 30 percent, in plastic pots with a surface area of 64 square centimeters. When required to ensure good germination and healthy plants, a fungicide treatment and/or other chemical or physical treatment was applied. The plants were grown for 7-21 days in a greenhouse with an approximate 15 hr photoperiod which was maintained at about 23-29° C. during the day and 22-28° C. during the night. Nutrients and water were added on a regular basis and supplemental lighting was provided with overhead metal halide 1000-Watt lamps as necessary. The plants were employed for testing when they reached the first or second true leaf stage. A weighed amount, determined by the highest rate to be tested, of each test compound was placed in a 20 mL glass vial and was dissolved in 4 mL of a 97:3 v/v (volume/volume) mixture of acetone and dimethyl sulfoxide (DMSO) to obtain concentrated stock solutions. […] The concentrated stock solutions obtained were diluted with an aqueous mixture containing acetone, water, isopropyl alcohol, DMSO, At plus 411 F crop oil concentrate, and Triton X-155 surfactant in a 48.5:39:10:1.5:1.0:0.02 v/v ratio to obtain spray solutions of known concentration. The solutions containing the highest concentration to be tested were prepared by diluting 2 mL aliquots of the stock solution with 13 mL of the mixture and lower concentrations were prepared by serial dilution of the stock solution. Approximately 1.5 mL aliquots of each solution of known concentration were sprayed evenly onto each of the test plant pots using a DeVilbiss atomizer driven by compressed air pressure of […] (140 to 280 kiloPascals) to obtain thorough coverage of each plant. Control plants were sprayed in the same manner with the aqueous mixture. In this test an application rate of 1 ppm results in the application of approximately 1 g/Ha. The treated plants and control plants were placed in a greenhouse as described above and watered by sub-irrigation to prevent wash-off of the test compounds. After 2 weeks the condition of the test plants as compared with that of the untreated plants was determined visually and scored on a scale of 0 to 100 percent where 0 corresponds to no injury and 100 corresponds to complete kill.

Series [2] deals with Pigweed (redroot) (Amaranthus retroflexus). The experiment in a line: Postemergence herbicidal activity, greenhouse spray. It is filed as in vivo. The conditions noted are these: visual score after 2 weeks; for pest or weed control at 62.5 µg/mL: Amaranthus retroflexus, post-emergence, 336 h, rate 62.5 (unit inferred), read-out: Post-emergent % control AMARE. A digest of the protocol: (§2)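 Test compounds, serially diluted into an aqueous acetone–isopropanol–DMSO vehicle with crop oil concentrate and Triton X-155, were atomizer-sprayed over plants at the 1–2 true leaf stage. Plants grew 7–21 days beforehand under ~15 h light; sub-irrigation followed treatment, with vehicle-sprayed controls.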

In series [3] the test system is Wheat(var. Merica) (Triticum aestivum). The experiment in a line: Postemergence herbicidal activity, selectivity to wheat. It is filed as in vivo. The settings on record: post-emergence, 336 h, Table 3, rate 62.5 (unit inferred), crop injury, read-out: Post-emergent % control TRZAS. As for the experimental part: as §1
Series [4] concerns Giant Foxtail (Setaria faberi). In words: Preemergence herbicidal activity, soil spray. The conditions noted are these: Setaria faberi, pre-emergence, 504 h, Table 5, visual score after 3 weeks, read-out: Pre-emergent % control SETFA; for pest or weed control at 560 ppm: rate 560 ppm. It is filed as in vivo. In short, it runs like this: (§3)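 Test species were planted first, then the soil of each pot was sprayed with compound solutions of known concentration made in water containing 0.1% Tween 155 from acetone–DMSO stocks. The growth matrix was a 70:30 loam and sand blend with pH near 8.1.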

The subject of series [5] is Lambsquarter (Chenopodium album). In words: Preemergence herbicidal activity, soil spray. Type of series: in vivo. The conditions noted are these: Chenopodium album, pre-emergence, 504 h, Table 5, visual score after 3 weeks, read-out: Pre-emergent % control CHEAL; for pest or weed control at 560 ppm: rate 560 ppm, 100 complete kill or no germination. In short, it runs like this: as §3

Series [6] has as its system Pigweed (redroot) (Amaranthus retroflexus). In words: Preemergence herbicidal activity, soil spray. Type of series: in vivo. The conditions noted are these: Amaranthus retroflexus, pre-emergence, 504 h, Table 5, visual score after 3 weeks, read-out: Pre-emergent % control AMARE; for pest or weed control at 560 ppm: rate 560 ppm. In short, it runs like this: as §3
The subject of series [7] is Crabgrass(large) (Digitaria sanguinalis). The experiment in a line: Preemergence herbicidal activity, soil spray. It is filed as in vivo. The settings on record: Digitaria sanguinalis, pre-emergence, 504 h, Table 5, visual score after 3 weeks, read-out: Pre-emergent % control DIGSA; for pest or weed control at 560 ppm: rate 560 ppm. In short, it runs like this:
as §3

The test system of series [8] is Barnyardgrass (Echinochloa crus-galli). In words: Postemergence herbicidal activity, greenhouse spray. The conditions noted are these: Echinochloa crus-galli, post-emergence, 336 h, visual score after 2 weeks, read-out: Post-emergent % control ECHCG; for pest or weed control at 500 ppm / pest or weed control at 250 ppm: Table 1; for pest or weed control at 500 ppm: rate 500 ppm; for pest or weed control at 250 ppm: rate 250 ppm; for pest or weed control at 125 ppm: Table 2, rate 125 ppm. It is filed as in vivo. A digest of the protocol: as §2

Series [9] deals with Cocklebur (Xanthium strumarium). Described as above. Type of series: in vivo. The conditions noted are these: Xanthium strumarium, post-emergence, 336 h, visual score after 2 weeks, read-out: Post-emergent % control XANST; for pest or weed control at 500 ppm / pest or weed control at 250 ppm: Table 1; for pest or weed control at 500 ppm: rate 500 ppm, 0 no injury, 100 complete kill; for pest or weed control at 250 ppm: rate 250 ppm; for pest or weed control at 125 ppm: Table 2, rate 125 ppm. A digest of the protocol: as §2

The test system of series [10] is Lambsquarter (Chenopodium album). Described as above. Type of series: in vivo. The conditions noted are these: Chenopodium album, post-emergence, 336 h, visual score after 2 weeks, read-out: Post-emergent % control CHEAL; for pest or weed control at 500 ppm / pest or weed control at 250 ppm: Table 1; for pest or weed control at 500 ppm: rate 500 ppm; for pest or weed control at 250 ppm: rate 250 ppm; for pest or weed control at 125 ppm: Table 2, rate 125 ppm. In short, it runs like this: as §2

Series [11] concerns Yellow nutsedge (Cyperus esculentus). Described as above. Type of series: in vivo. The conditions noted are these: Cyperus, post-emergence, 336 h, visual score after 2 weeks, read-out: Post-emergent % control CYPES; for pest or weed control at 500 ppm / pest or weed control at 250 ppm: Table 1; for pest or weed control at 500 ppm: rate 500 ppm; for pest or weed control at 250 ppm: rate 250 ppm; for pest or weed control at 125 ppm: Table 2, rate 125 ppm. In short, it runs like this: as §2

Read-outs that look alike come from different tables or passages of the source.

Take `COC(=O)c1nc(-c2ccc(Cl)cc2C)cc(N)c1Cl` [Compound 45, Methyl 4-amino-3-chloro-6-(4-chloro-2-methylphenyl)pyridine-2-carboxylate]: the melting point was 114 to 115 °C. In [1], the pest or weed control at 62.5 µg/mL came to 0%. Also, the pest or weed control at 62.5 µg/mL in series [2] (Table 4) was 100%.
Take `COC(=O)c1nc(-c2ccc(Cl)cc2)cc(NC(C)=O)c1Cl` [Compound 53, Methyl 4-acetamido-3-chloro-6-(4-chlorophenyl)pyridine-2-carboxylate]: the melting point lay in the range of 151 to 152 °C. Also, the pest or weed control at 62.5 µg/mL in [3] is 0%. For the same compound, the pest or weed control at 560 ppm in series [4] was 100%. For the same compound, in series [5], the pest or weed control at 560 ppm turned out to be 100%. For the same compound, in series [6], the pest or weed control at 560 ppm is 100%. In addition, in series [7], the pest or weed control at 560 ppm was 100%. Further, in [1], the pest or weed control at 62.5 µg/mL came out at 10%. The pest or weed control at 62.5 µg/mL in series [2] (Table 3) was 70%. In series [2] (Table 4, rate 62.5 (unit not given)), the “Post-emergent % control AMARE” value worked out at 70%.
On to `COC(=O)c1nc(-c2ccc(F)cc2Cl)cc(N)c1Cl` [Compound 58, Methyl 4-amino-3-chloro-6-(2-chloro-4-fluorophenyl)pyridine-2-carboxylate], for which the melting point lay in the range of 155 to 157 °C. Besides, the pest or weed control at 62.5 µg/mL in series [1] was determined as 0%. Besides, the pest or weed control at 500 ppm in [8] came to 70%. In addition, the pest or weed control at 500 ppm in series [9] came to 100%. The pest or weed control at 500 ppm in series [10] was determined as 100%. For the same compound, the pest or weed control at 62.5 µg/mL in series [2] (Table 4) stood at 100%. Moreover, in [11], the pest or weed control at 500 ppm was 70%.
For `Cc1ccc(-c2cc(N)c(Cl)c(C(=O)O)n2)cc1C` [Compound 132, 4-amino-3-chloro-6-(3,4-dimethylphenyl)pyridine-2-carboxylic acid], the melting point was in the range of 192 to 194 °C. Moreover, in series [3], the pest or weed control at 62.5 µg/mL is 0%. Moreover, the pest or weed control at 140 ppm in [4] (rate 140 ppm) worked out at 95%. For the same compound, the pest or weed control at 140 ppm in series [5] (rate 140 ppm) is 100%. Also, in [6] (rate 140 ppm), the pest or weed control at 140 ppm was 90%. In addition, in [7] (rate 140 ppm), the pest or weed control at 140 ppm amounted to 100%. Moreover, the pest or weed control at 500 ppm in [8] turned out to be 80%. In addition, the pest or weed control at 500 ppm in series [9] stood at 100%. For the same compound, in series [10], the pest or weed control at 500 ppm was found to be 90%. The pest or weed control at 62.5 µg/mL in [2] (Table 3) is 70%. For the same compound, the pest or weed control at 500 ppm in [11] came out at 0%.
Compound `Cc1ccc(-c2cc(N)c(Cl)c(C(=O)O)n2)cc1` [Compound 136, 4-Amino-3-chloro-6-(4-methylphenyl)pyridine-2-carboxylic acid] had a melting point of 166 to 167 °C. In addition, the pest or weed control at 62.5 µg/mL in [3] was 0%. Moreover, the pest or weed control at 560 ppm in series [4] was determined as 100%. Also, the pest or weed control at 560 ppm in series [5] turned out to be 100%. In [6], the pest or weed control at 560 ppm came out at 100%. Also, the pest or weed control at 560 ppm in series [7] turned out to be 100%. In addition, in series [8], the pest or weed control at 250 ppm worked out at 70% and the pest or weed control at 125 ppm was found to be 70%. In series [9], the pest or weed control at 250 ppm amounted to 100% and the pest or weed control at 125 ppm was 100%. Moreover, in series [10], the pest or weed control at 250 ppm worked out at 100% and the pest or weed control at 125 ppm was 100%. In series [2] (Table 3), the pest or weed control at 62.5 µg/mL was 100%. For the same compound, in series [11], the pest or weed control at 250 ppm is 80% and the pest or weed control at 125 ppm stood at 70%.
On to `Nc1cc(-c2ccc(Cl)cc2Cl)nc(C(=O)O)c1Cl` [Compound 146, 4-Amino-3-chloro-6-(2,4-dichlorophenyl)pyridine-2-carboxylic acid], for which the melting point was 176 to 177 °C. In addition, the pest or weed control at 560 ppm in [4] was found to be 90%. Moreover, the pest or weed control at 560 ppm in [5] was 100%. The pest or weed control at 560 ppm in series [6] was determined as 100%. The pest or weed control at 560 ppm in [7] was found to be 80%. Further, the pest or weed control at 62.5 µg/mL in series [1] stood at 0%. For the same compound, in [8], the pest or weed control at 250 ppm worked out at 85% and the pest or weed control at 125 ppm stood at 75%. Further, in [9], the pest or weed control at 250 ppm turned out to be 100% and the pest or weed control at 125 ppm came to 100%. Besides, in [10], the pest or weed control at 250 ppm stood at 100% and the pest or weed control at 125 ppm came out at 100%. Moreover, in series [2] (Table 4), the pest or weed control at 62.5 µg/mL worked out at 100%. In addition, in series [11], the pest or weed control at 250 ppm turned out to be 98% and the pest or weed control at 125 ppm is 95%.
On to `Nc1cc(-c2ccc3c(c2)OCO3)nc(C(=O)O)c1Cl` [Compound 153, 4-Amino-3-chloro-6-(3,4-methylenedioxyphenyl)pyridine-2-carboxylic acid], for which the melting point was determined as 182 °C. The pest or weed control at 62.5 µg/mL in series [3] came to 10%. Besides, the pest or weed control at 560 ppm in series [4] amounted to 100%. Besides, the pest or weed control at 560 ppm in series [5] came to 100%. In [6], the pest or weed control at 560 ppm is 100%. For the same compound, the pest or weed control at 560 ppm in series [7] stood at 100%. In addition, the pest or weed control at 500 ppm in series [8] is 95%. Also, the pest or weed control at 500 ppm in [9] is 100%. For the same compound, the pest or weed control at 500 ppm in series [10] was found to be 98%. Besides, the pest or weed control at 62.5 µg/mL in series [2] (Table 3) was 100%. Moreover, the pest or weed control at 500 ppm in [11] turned out to be 70%.
As for `Cc1cc(Cl)ccc1-c1cc(N)c(Cl)c(C(=O)O)n1` [Compound 155, 4-Amino-3-chloro-6-(4-chloro-2-methylphenyl)pyridine-2-carboxylic acid], the melting point fell in the range of 153 to 154 °C. For the same compound, the pest or weed control at 62.5 µg/mL in series [1] came out at 0%. In series [2] (Table 4), the pest or weed control at 62.5 µg/mL was 100%.
